# According to patent US9018176B2, “Inducers of hematopoiesis and fetal globin production for treatment of cytopenias and hemoglobin disorders” (priority 2010, dated 2015):
# Assays:
# γ-globin gene promoter = test: Dual luciferase reporter assay (μLCRβprRlucAγprFluc cassette) in GM979 cells; format: cell-based; details: Resveratrol at 10 μM, MS-275 at 5 μM
# Text: Cell-based screen for γ-globin inducing compounds in GM979 cells (Skarpidi, et al. Blood 2000; 96:321-326). Mini-gene construct integrated into GM979 cell genome. The readout is Firefly/Renilla luciferase ratio, and is designed to identify only strong inducers of the γ-globin promoter, and specificity for the γ- vs. the […]γ-globin gene. This second assay confirmed 12/15 candidates.
# This assay is […], and consists of a dual-luciferase reporter construct containing the LCR and the […] luciferase and the Aγ-globin promoter linked to firefly luciferase (μLCRβprRlucAγprFluc cassette), stably-transfected into GM979 cells. The orientation of the promoters and μLCR allowed detection only of strong, specific inducers of the γ-globin gene promoter. This assay is also been predictive of in vivo HbF-inducing activity.
# The γ-globin-specificity of hits was determined in a secondary assay employing a stably-transfected dual-luciferase reporter construct containing the LCR and the β-globin promoter linked to renilla luciferase and the Aγ-globin promoter linked to firefly luciferase (μLCRβprRlucAγprFluc cassette) (FIG. 2B).
# γ-globin mRNA [1] = test: γ-globin mRNA in cultured primary human erythroid progenitors (BFU-e), real-time PCR; format: cell-based; details: Resveratrol 0.2 uM
# γ-globin mRNA [2] = test: γ-globin mRNA gene expression in K562 cells; format: cell-based
# histone deacetylases = test: Histone deacetylase inhibition
# CB BFU-E cells = test: CB BFU-E cell proliferation (cells/colony); details: FIG. 8
# Experimental: Fetal globin-inducing activity in human erythroid progenitors was assessed. Human erythroid progenitors were cultured from peripheral blood samples, exposed to the test compounds at varying concentrations and for varying durations and analyzed for globin chain mRNA ratios. Erythroid progenitors were cultured from cord blood CD34+ cells. Briefly, CD34+ cells in the human cord blood were separated using a Ficoll-paque density gradient. CD34+ cells were cultured in H4230 medium containing 2 mM L-glutamine, 1% Methylcellulose in Iscove's Medium, 30% Fetal Bovine Serum, 1% Bovine Serum Albumin and 10^-4 M β-mercaptoethanol. Methylcellulose H4230 medium was supplemented with EPO (0.5 U/ml) and IL-3 (20 ng/ml) to support BFU-e growth. Cells were cultured in […] mini-dishes and incubated in a humidified atmosphere containing 5% CO2, at 37° C. Different concentrations of the test compounds were added at the time the cultures were established. Each compound was tested in three different cultures. BFU-e colonies grown in mini-dishes were counted on day 14 and harvested for mRNA analysis.
# γ-globin mRNA [3] = test: γ-globin mRNA in cultured primary human erythroid progenitors (BFU-e), real-time PCR; format: cell-based
# Experimental: Erythroid progenitors were cultured from cord blood CD34+ cells. […] Each compound was tested in three different cultures. […] On day 14, RNA was extracted from cultured erythroid cells, and relative quantification PCR was performed. Briefly, cDNA was generated from equal amounts of total RNA extracted using The PerfectPure RNA Purification Kit (5 Prime Inc Gaithersburg, Md.). Real-time PCR was performed using an ABI 7500 Real-Time PCR system (Applied Biosystems, Foster City, Calif.). Levels of globin mRNA were calculated by the ΔΔCt method. […] GAPDH levels were used for standardization. Western blotting Nuclear extract of K562 cells and 14-day-old BFU-e were analyzed by electrophoresis using 5-24% gradient SDS-polyacrylamide mini-gels (BIORAD Laboratories. Hercules Calif.). Proteins in the gels were transferred to Immobilon-P membranes. Blots were then incubated with BCL11A polyclonal (Novus Biologicals, Littleton Co) or mouse monoclonal (Santa Cruz Biotechnology, Santa Cruz Calif.) antibodies, after washing blots were incubated with anti-rabbit IgG-horseradish peroxidase secondary antibody (ECL, Little Chalfont Buckinghamshire UK). BCL11A bands were detected on the X-ray film using Western Lightning Reagents (Perking Elmer Inc, Waltham, Mass.).
# [4] = Hemoglobin disorder progenitors
smiles,measurement,setting,value
"Oc1ccc(C=Cc2cc(O)cc(O)c2)cc1 [Resveratrol, resveratrol]",activity compared with sodium Butyrate,"γ-globin gene promoter; Ambroxol at 1 μM, Desloratadine at 1 μM, Benserazide at 0.03 μM (or a range of 30 nM-5 μM), NSC-95397 at 1 μM, versus sodium Butyrate at 2000 μM",significantly more active
same,most active at inducing γ-globin mRNA expression,γ-globin gene promoter; Benserazide at 0.03 μM,most active
same,"fetal globin mRNA, Mean",γ-globin mRNA [1]; Cord Blood progenitors,217 % of control
same,responses (cultures with induced fetal globin mRNA),γ-globin mRNA [1]; Cord Blood progenitors,5/5
same,"fetal globin mRNA, Mean",γ-globin mRNA [1]; [4],245 % of control
same,responses (cultures with induced fetal globin mRNA),γ-globin mRNA [1]; [4],1/2
same,"fetal globin mRNA, Mean",γ-globin mRNA [1]; Normal progenitors,122 % of control
same,responses (cultures with induced fetal globin mRNA),γ-globin mRNA [1]; Normal progenitors,1/2
same,concentration giving the most γ-globin mRNA expression,"γ-globin mRNA [2]; FIG. 5, K562 cells, tested Desloratadine 10 μM-100 μM, Resveratrol 5 μM-30 μM, NSC 1 μM-50 μM",30 µM
same,% induction of γ-globin mRNA gene expression,"γ-globin mRNA [2]; FIGS. 4A and 4B, K562 cells, Resveratrol 30 μM, desloratadine 50 μM, NSC 50 μM, Benserazine 5 μM",most significant % increase
same,concentration that inhibits histone deacetylases,histone deacetylases,0.05 µM
same,number of blood cells per colony,CB BFU-E cells,increase the number of blood cells per colony
same,cytotoxicity / inhibition of erythroid cell proliferation,"CB BFU-E cells; Desloratadine 1 μM-10 μM, Resveratrol 0.05 μM-5 μM, Benserazide 0.1 μM-10 μM",non-cytotoxic
same,% induction of γ-globin mRNA gene expression,"γ-globin mRNA [3]; FIG. 4C, HFU-E (burst-forming units-erythroid) cells, Resveratrol 30 μM, desloratadine 50 μM, NSC 50 μM, Benserazine 5 μM",most significant % increase
same,γ-globin mRNA induction,"γ-globin mRNA [3]; cultured primary human erythroid progenitors, concentrations pharmacologically achievable in humans",up to 3 fold
same,concentrations that induce fetal globin (HbF) mRNA,γ-globin mRNA [3]; primary erythroid progenitors in vitro,0.05 µM
